≈ marks a conversion by molar mass, not a printed value.
Legend:
Test in all cases: MIC, agar dilution
Format in all cases: cell-based
E. Faecium (EFAE 12712) = conditions: Enterococcus faecium, E. Faecium 12712, overnight at 35° C.
Description: (§1) The in vitro MICs of test compounds were determined by a standard agar dilution method. A stock drug solution of each analog was prepared in the preferred solvent, usually DMSO:H2O (1:3). Serial 2-fold dilutions of each sample are made using 1.0 ml aliquots of sterile distilled water. To each 1.0 ml aliquot of drug was added 9 ml of molten Mueller Hinton agar medium. The drug-supplemented agar was mixed, poured into 15×100 mm petri dishes, and allowed to solidify and dry prior to inoculation.
(§2) Vials of each of the test organisms are maintained frozen in the vapor phase of a liquid nitrogen freezer. Test cultures are grown overnight at 35° C. on the medium appropriate for the organism. Colonies are harvested with a sterile swab, and cell suspensions are prepared in Trypticase Soy broth (TSB) to equal the turbidity of a 0.5 McFarland standard. A 1:20 dilution of each suspension was made in TSB. The plates containing the drug supplemented agar are inoculated with a 0.001 ml drop of the cell suspension using a Steers replicator, yielding approximately 10^4 to 10^5 cells per spot. The plates are incubated overnight at 35° C.
(§3) Following incubation the Minimum Inhibitory Concentration (MIC μg/ml), the lowest concentration of drug that inhibits visible growth of the organism, was read and recorded.

S. pneumonia (SPNE 9912) = conditions: S. pneumonia 9912, overnight at 35° C.
Description: as §1, §2, §3

E. Faecalis (EFAE 9217) = conditions: Enterococcus faecalis, E. Faecalis 9217, overnight at 35° C.
Description: as §1, §2, §3

[1] = test system: S. epidermidis (SEPI 30593); conditions: Staphylococcus epidermidis, S. epidermidis 30593, overnight at 35° C.
Description: as §1, §2, §3

[2] = test system: H. influenzae (HINF 30063); conditions: Haemophilus influenzae, H. influenzae 30063, overnight at 35° C.
Description: as §1, §2, §3

S. aureus (SAUR 31583) = conditions: Staphylococcus aureus, S. aureus 31583, overnight at 35° C.
Description: as §1, §2, §3

[3] = test system: H. influenzae (HINF 31810); conditions: Haemophilus influenzae, H. influenzae 31810, overnight at 35° C.
Description: as §1, §2, §3

S. aureus (SAUR 9213) = conditions: Staphylococcus aureus, S. aureus 9213, overnight at 35° C.
Description: as §1, §2, §3

S. pyogenes (SPYO 152) = conditions: Streptococcus pyogenes, S. pyogenes 152, overnight at 35° C.
Description: as §1, §2, §3

[4] = test system: M. catarrhalis (MCAT 30607); conditions: Moraxella catarrhalis, M. catarrhalis 30607, overnight at 35° C.
Description: as §1, §2, §3

| MIC (E. Faecium (EFAE 12712)) | MIC (S. pneumonia (SPNE 9912)) | MIC (E. Faecalis (EFAE 9217)) | MIC [1] | MIC [2] | MIC (S. aureus (SAUR 31583)) | MIC [3] | MIC (S. aureus (SAUR 9213)) | MIC (S. pyogenes (SPYO 152)) | MIC [4] | SMILES |
| --- | --- | --- | --- | --- | --- | --- | --- | --- | --- | --- |
| 1 µg/mL (≈ 1.76 µM) | 0.125 µg/mL (≈ 0.219 µM) | 1 µg/mL (≈ 1.76 µM) | 1 µg/mL (≈ 1.76 µM) | 16 µg/mL (≈ 28.1 µM) | 4 µg/mL (≈ 7.02 µM) | 8 µg/mL (≈ 14 µM) | 2 µg/mL (≈ 3.51 µM) | 0.125 µg/mL (≈ 0.219 µM) | 2 µg/mL (≈ 3.51 µM) | CN(C)Cc1ccc(OCC(=O)N2CCN(c3ccc(N4C[C@H](CNC(=S)C5CC5)OC4=O)cc3F)CC2)cc1 [Compound 2] |
| 32 µg/mL (≈ 57.6 µM) | 2 µg/mL (≈ 3.6 µM) | 32 µg/mL (≈ 57.6 µM) | 8 µg/mL (≈ 14.4 µM) | > 64 µg/mL | > 64 µg/mL | > 64 µg/mL | 32 µg/mL (≈ 57.6 µM) | 2 µg/mL (≈ 3.6 µM) | 32 µg/mL (≈ 57.6 µM) | CCN(CC)Cc1ccc(OCC(=O)N2CCN(c3ccc(N4C[C@H](CNC(C)=O)OC4=O)cc3F)CC2)cc1 [Compound 8] |
| 2 µg/mL (≈ 3.41 µM) | 0.25 µg/mL (≈ 0.427 µM) | 2 µg/mL (≈ 3.41 µM) | 2 µg/mL (≈ 3.41 µM) | 32 µg/mL (≈ 54.6 µM) | 32 µg/mL (≈ 54.6 µM) | 32 µg/mL (≈ 54.6 µM) | 4 µg/mL (≈ 6.83 µM) | 0.25 µg/mL (≈ 0.427 µM) | 4 µg/mL (≈ 6.83 µM) | CCC(=S)NC[C@H]1CN(c2ccc(N3CCN(C(=O)COc4ccc(CN(CC)CC)cc4)CC3)c(F)c2)C(=O)O1 [Compound 9] |
| 2 µg/mL (≈ 3.35 µM) | 0.25 µg/mL (≈ 0.418 µM) | 2 µg/mL (≈ 3.35 µM) | 1 µg/mL (≈ 1.67 µM) | 32 µg/mL (≈ 53.5 µM) | 8 µg/mL (≈ 13.4 µM) | 32 µg/mL (≈ 53.5 µM) | 2 µg/mL (≈ 3.35 µM) | 0.25 µg/mL (≈ 0.418 µM) | 2 µg/mL (≈ 3.35 µM) | CCN(CC)Cc1ccc(OCC(=O)N2CCN(c3ccc(N4C[C@H](CNC(=S)C5CC5)OC4=O)cc3F)CC2)cc1 [Compound 10] |
| 2 µg/mL (≈ 3.59 µM) | 0.125 µg/mL (≈ 0.224 µM) | 1 µg/mL (≈ 1.79 µM) | 1 µg/mL (≈ 1.79 µM) | 16 µg/mL (≈ 28.7 µM) | 16 µg/mL (≈ 28.7 µM) | 16 µg/mL (≈ 28.7 µM) | 8 µg/mL (≈ 14.3 µM) | 0.25 µg/mL (≈ 0.448 µM) | 4 µg/mL (≈ 7.17 µM) | CCC(=S)NC[C@H]1CN(c2ccc(N3CCN(C(=O)COc4ccc(CN(C)C)cc4)CC3)c(F)c2)C(=O)O1 [Compound 13] |
| 8 µg/mL (≈ 15.2 µM) | 0.5 µg/mL (≈ 0.948 µM) | 8 µg/mL (≈ 15.2 µM) | 8 µg/mL (≈ 15.2 µM) | 64 µg/mL (≈ 121 µM) | > 64 µg/mL | 32 µg/mL (≈ 60.7 µM) | 16 µg/mL (≈ 30.3 µM) | 0.5 µg/mL (≈ 0.948 µM) | 32 µg/mL (≈ 60.7 µM) | CC(=O)NC[C@H]1CN(c2ccc(N3CCN(C(=O)COc4ccc(CN(C)C)cc4)CC3)c(F)c2)C(=O)O1 [Compound 14] |
| 2 µg/mL (≈ 3.33 µM) | 0.25 µg/mL (≈ 0.417 µM) | 1 µg/mL (≈ 1.67 µM) | 2 µg/mL (≈ 3.33 µM) | 64 µg/mL (≈ 107 µM) | 32 µg/mL (≈ 53.4 µM) | 32 µg/mL (≈ 53.4 µM) | 8 µg/mL (≈ 13.3 µM) | 0.5 µg/mL (≈ 0.834 µM) | 4 µg/mL (≈ 6.67 µM) | CCC(=S)NC[C@H]1CN(c2ccc(N3CCN(C(=O)COc4ccc(CN5CCOCC5)cc4)CC3)c(F)c2)C(=O)O1 [Compound 17] |
| 2 µg/mL (≈ 3.27 µM) | 0.25 µg/mL (≈ 0.409 µM) | 1 µg/mL (≈ 1.63 µM) | 1 µg/mL (≈ 1.63 µM) | 64 µg/mL (≈ 105 µM) | 16 µg/mL (≈ 26.2 µM) | 32 µg/mL (≈ 52.3 µM) | 4 µg/mL (≈ 6.54 µM) | 0.25 µg/mL (≈ 0.409 µM) | 2 µg/mL (≈ 3.27 µM) | O=C(COc1ccc(CN2CCOCC2)cc1)N1CCN(c2ccc(N3C[C@H](CNC(=S)C4CC4)OC3=O)cc2F)CC1 [Compound 18] |
| 8 µg/mL (≈ 14 µM) | 1 µg/mL (≈ 1.76 µM) | 4 µg/mL (≈ 7.02 µM) | 8 µg/mL (≈ 14 µM) | > 64 µg/mL | > 64 µg/mL | 64 µg/mL (≈ 112 µM) | 16 µg/mL (≈ 28.1 µM) | 1 µg/mL (≈ 1.76 µM) | 64 µg/mL (≈ 112 µM) | CC(=O)NC[C@H]1CN(c2ccc(N3CCN(C(=O)COc4ccc(CN5CCOCC5)cc4)CC3)c(F)c2)C(=O)O1 [Compound 19] |
| 2 µg/mL (≈ 3.26 µM) | 0.125 µg/mL (≈ 0.204 µM) | – | 2 µg/mL (≈ 3.26 µM) | 32 µg/mL (≈ 52.2 µM) | 32 µg/mL (≈ 52.2 µM) | 16 µg/mL (≈ 26.1 µM) | 8 µg/mL (≈ 13.1 µM) | 0.25 µg/mL (≈ 0.408 µM) | 2 µg/mL (≈ 3.26 µM) | CCC(=S)NC[C@H]1CN(c2ccc(N3CCN(C(=O)COc4ccc(CN5CCN(C)CC5)cc4)CC3)c(F)c2)C(=O)O1 [Compound 22] |
| 8 µg/mL (≈ 12.8 µM) | 0.5 µg/mL (≈ 0.8 µM) | – | 8 µg/mL (≈ 12.8 µM) | 64 µg/mL (≈ 102 µM) | > 64 µg/mL | 64 µg/mL (≈ 102 µM) | 16 µg/mL (≈ 25.6 µM) | 0.5 µg/mL (≈ 0.8 µM) | 32 µg/mL (≈ 51.2 µM) | CN1CCN(Cc2ccc(OCC(=O)N3CCN(c4ccc(N5C[C@H](CNC(=S)C6CC6)OC5=O)cc4F)CC3)cc2)CC1 [Compound 23] |
| 2 µg/mL (≈ 3.43 µM) | 0.125 µg/mL (≈ 0.215 µM) | – | 2 µg/mL (≈ 3.43 µM) | 32 µg/mL (≈ 54.9 µM) | 16 µg/mL (≈ 27.5 µM) | 16 µg/mL (≈ 27.5 µM) | 4 µg/mL (≈ 6.86 µM) | 0.25 µg/mL (≈ 0.429 µM) | 2 µg/mL (≈ 3.43 µM) | CC(=O)NC[C@H]1CN(c2ccc(N3CCN(C(=O)COc4ccc(CN5CCN(C)CC5)cc4)CC3)c(F)c2)C(=O)O1 [Compound 24] |
